# Laboratory results as given in patent publication US7202219B1, “Use of D-tagatose as a prebiotic food component” (priority 1998, dated 2007).
# Assays:
# colon content = assay: In vitro fermentation of D-tagatose by pig caecum/colon content slurries (Example 1); assay type: cell-based; details: for Tagatose degradation: in vitro incubation; for Mole % of SCFA after microbial fermentation of D-Tagatose: Acetate / Mole % of SCFA after microbial fermentation of D-Tagatose: Butyrate / Mole % of SCFA after microbial fermentation of D-Tagatose: Capronate / Mole % of SCFA after microbial fermentation of D-Tagatose: Formate / Mole % of SCFA after microbial fermentation of D-Tagatose: Heptanoate / Mole % of SCFA after microbial fermentation of D-Tagatose: Propionate / Mole % of SCFA after microbial fermentation of D-Tagatose: Valerate: 1% tagatose added, 0–4 h
# Method: In the study, one group of 8 pigs was having a standard diet+15% sucrose (unadapted), and another group of 8 pigs was fed a standard diet+5% sucrose+10% D-tagatose (adapted) for 17 days.
# On the 17. day the pigs were killed 3 hours after the morning feeding, and the entire gastrointestinal tract was sectioned. […] 20% slurries were incubated at 37° C. and anaerobic conditions for 4 hours with or without 1% D-tagatose added. The amount of SCFA produced by D-tagatose is calculated as the amount produced in the assay with 1% D-tagatose added subtracted by the amount produced in the assay without D-tagatose.
# [1] = Concentration of butyrate in gastrointestinal sections at slaughtering (Example 2); assay type: in vivo, pig; details: pigs, 0, 10 or 20% D-tagatose in diet for 33 days; hind gut (FIG. 1)
# Method: (§1) In this study, 3 groups of each 2 pigs were having a standard pig diet+20% sucrose, a standard pig diet+10% sucrose+10% D-tagatose, and a standard pig diet+20% D-tagatose for 33 days. The pigs were killed on the 33. day 6 hours after morning feeding, and the entire gastrointestinal tract was divided into 8 segments.
# (§2) The concentrations of the various SCFA were measured in the 8 sections immediately after killing, and further the content from the 8 sections was used for 12 hour in vitro incubations at 37° C. and anaerobic conditions. In this in vitro assay no D-tagatose was added, and the fermentation products originate from unabsorbed D-tagatose and other undigestible food components from the diets.
# [2] = system: content from the 8 sections; assay: 12 hour in vitro incubation of content from gut sections, no D-tagatose added (Example 2); assay type: cell-based, pig
# Method: as §1, §2
# The data presented here are normalized to production of SCFA pr kg feed.
# [3] = In vivo absorption of SCFA in the blood (Example 3); set-up: species or system pig
# Method: In this pig study the in vivo absorption of SCFA in the blood is measured by taking blood samples simultaneously from 3 catheters in Vena Mesenterica, Ateria mesenterica and Vena Porta over a 12 hour period after the morning feeding. The absorption is measured in the same 5 pigs at 3 different occasions, that is after 7 days adaptation to standard pig diet+20% sucrose (sucrose), the first day of switching to a standard pig diet+20% D-tagatose (unadapted), and after 7 days adaptation to a standard pig diet+20% D-tagatose (adapted). The concentration of SCFA's is determined in samples from the portal vein, that is the blood stream leading from the digestive system to the liver, and in the arterial blood, that is the blood stream before the digestive system. The difference between the two integrated by time is a measure of the intestinal absorption of SCFA's.
# The area between the 2 curves is equal to the total absorption of butyrate from the intestine.
# human faeces = assay: In vitro fermentation of tagatose by incubation of human faeces (Example 4); assay type: cell-based
# Method: (§3) In this study 16 human volunteers deliver a faeces sample before any intake of D-tagatose (unadapted) and another faeces sample after 14 days' intake of 3×10 g of D-tagatose pr day (adapted). The 16 volunteers are on controlled diet 4 days before the delivery of each faeces samples. Faeces slurries, 20%, were incubated at 37° C. and anaerobic conditions for 48 hours with or without 1% D-tagatose added. Samples for determination of SCFA were taken after 4 hours and after 48 hours of incubation. The amount of SCFA produced by D-tagatose is calculated as the amount produced in the assay with 1% D-tagatose added subtracted by the amount produced in the assay without D-tagatose. Further, the delivered faeces samples were tested for content of various intestinal bacteria counts by spreading on selective media.
# intestinal bacteria = assay: Counts of intestinal bacteria in faeces on selective media (Example 4); assay type: in vivo; details: human volunteers, 3×10 g D-tagatose pr day for 14 days versus before intake (FIG. 5)
# Method: as §3
# [4] = oral; cited from earlier work
# human faecal incubations = details: cited from earlier work; for proportion of butyrate on fermentation: human faecal in vitro system (Mortensen et al. 1988)
# [5] = normalized pr kg feed, 0, 10 or 20% D-tagatose in diet (FIG. 3)
# [6] = addition of D-tagatose to the diet
# [7] = pigs after 7 days of adaptation to 20% D-tagatose diet (FIG. 4)
# [8] = 4 hours of incubation, Non-adapted
# [9] = 48 hours of incubation, Adapted
# [10] = 48 hours of incubation, Non-adapted
smiles,measurement,setting,value
O=C(CO)[C@@H](O)[C@@H](O)[C@H](O)CO [D-tagatose],Tagatose degradation,"colon content; Control pigs (unadapted), colon",1.1 g/h/kg digesta
same,Mole % of SCFA after microbial fermentation of D-Tagatose: Acetate,"colon content; Control pigs, caecum",54.8 Mole %
same,Mole % of SCFA after microbial fermentation of D-Tagatose: Butyrate,"colon content; Control pigs, caecum",18.2 Mole %
same,Mole % of SCFA after microbial fermentation of D-Tagatose: Capronate,"colon content; Control pigs, caecum",2.0 Mole %
same,Mole % of SCFA after microbial fermentation of D-Tagatose: Formate,"colon content; Control pigs, caecum",2.5 Mole %
same,Mole % of SCFA after microbial fermentation of D-Tagatose: Heptanoate,"colon content; Control pigs, caecum",0.2 Mole %
same,Mole % of SCFA after microbial fermentation of D-Tagatose: Propionate,"colon content; Control pigs, caecum",11.2 Mole %
same,Mole % of SCFA after microbial fermentation of D-Tagatose: Valerate,"colon content; Control pigs, caecum",11.1 Mole %
same,Tagatose degradation,"colon content; Control pigs, caecum",2.7 g/h/kg digesta
same,Mole % of SCFA after microbial fermentation of D-Tagatose: Acetate,"colon content; Control pigs, colon",70.1 Mole %
same,Mole % of SCFA after microbial fermentation of D-Tagatose: Butyrate,"colon content; Control pigs, colon",16.7 Mole %
same,Mole % of SCFA after microbial fermentation of D-Tagatose: Capronate,"colon content; Control pigs, colon",4.8 Mole %
same,Mole % of SCFA after microbial fermentation of D-Tagatose: Formate,"colon content; Control pigs, colon",0.0 Mole %
same,Mole % of SCFA after microbial fermentation of D-Tagatose: Heptanoate,"colon content; Control pigs, colon",0.6 Mole %
same,Mole % of SCFA after microbial fermentation of D-Tagatose: Propionate,"colon content; Control pigs, colon",0.0 Mole %
same,Mole % of SCFA after microbial fermentation of D-Tagatose: Valerate,"colon content; Control pigs, colon",7.8 Mole %
same,Tagatose degradation,"colon content; D-tagatose pigs (adapted), colon",15.3 g/h/kg digesta
same,Mole % of SCFA after microbial fermentation of D-Tagatose: Acetate,"colon content; D-tagatose pigs, caecum",21.5 Mole %
same,Mole % of SCFA after microbial fermentation of D-Tagatose: Butyrate,"colon content; D-tagatose pigs, caecum",21.8 Mole %
same,Mole % of SCFA after microbial fermentation of D-Tagatose: Capronate,"colon content; D-tagatose pigs, caecum",1.9 Mole %
same,Mole % of SCFA after microbial fermentation of D-Tagatose: Formate,"colon content; D-tagatose pigs, caecum",14.4 Mole %
same,Mole % of SCFA after microbial fermentation of D-Tagatose: Heptanoate,"colon content; D-tagatose pigs, caecum",0.0 Mole %
same,Mole % of SCFA after microbial fermentation of D-Tagatose: Propionate,"colon content; D-tagatose pigs, caecum",17.0 Mole %
same,Mole % of SCFA after microbial fermentation of D-Tagatose: Valerate,"colon content; D-tagatose pigs, caecum",23.4 Mole %
same,Tagatose degradation,"colon content; D-tagatose pigs, caecum",3.7 g/h/kg digesta
same,Mole % of SCFA after microbial fermentation of D-Tagatose: Acetate,"colon content; D-tagatose pigs, colon",23.3 Mole %
same,Mole % of SCFA after microbial fermentation of D-Tagatose: Butyrate,"colon content; D-tagatose pigs, colon",46.3 Mole %
same,Mole % of SCFA after microbial fermentation of D-Tagatose: Capronate,"colon content; D-tagatose pigs, colon",6.8 Mole %
same,Mole % of SCFA after microbial fermentation of D-Tagatose: Formate,"colon content; D-tagatose pigs, colon",3.7 Mole %
same,Mole % of SCFA after microbial fermentation of D-Tagatose: Heptanoate,"colon content; D-tagatose pigs, colon",0.8 Mole %
same,Mole % of SCFA after microbial fermentation of D-Tagatose: Propionate,"colon content; D-tagatose pigs, colon",4.0 Mole %
same,Mole % of SCFA after microbial fermentation of D-Tagatose: Valerate,"colon content; D-tagatose pigs, colon",15.1 Mole %
same,butyrate in SCFA profile,colon content; colon content from unadapted pigs,less than 20%
same,concentration of butyrate in the various gastrointestinal sections at the time of slaughtering,[1],increasing in a dose response manner
same,12 hour in vitro production of butyrate,"[2]; content from gut sections of pigs on 0, 10 or 20% D-tagatose diet (FIG. 2)",acting in a dose response manner
same,total 12 hour in vitro production of SCFA in the gut: acetate,[2]; [5],not influenced
same,total 12 hour in vitro production of SCFA in the gut: butyrate,[2]; [5],in a dose response manner promote the microbiological production of butyrate
same,total absorption of butyrate (area between portal and arterial curves),[3]; adapted versus unadapted to 20% D-tagatose diet,does not differ in the adapted and unadapted state
same,absorption of acetate,[3]; [6],not increased
same,absorption of propionate,[3]; [6],not increased
same,concentration of butyrate in arterial blood,[3]; [7],increasing
same,concentration of butyrate in the portal blood,[3]; [7],very steep increase a few hours after feeding
same,time of adaptation to butyrate production,"[3]; pigs in vivo, 20% D-tagatose diet",≤ 12 h
same,butyrate in the portal vein,"[3]; pigs unadapted, first day of 20% D-tagatose diet, 12 hours after feeding (FIG. 4)",gradually increasing over the 12 hours of measuring
same,Molar Ratios (Mole %) of SCFA's: Acetic acid,"human faeces; 4 hours of incubation, Adapted",42.1 Mole %
same,Molar Ratios (Mole %) of SCFA's: Butyric acid,"human faeces; 4 hours of incubation, Adapted",34.7 Mole %
same,Molar Ratios (Mole %) of SCFA's: Capronic acid,"human faeces; 4 hours of incubation, Adapted",3.5 Mole %
same,Molar Ratios (Mole %) of SCFA's: Formic acid,"human faeces; 4 hours of incubation, Adapted",5.8 Mole %
same,Molar Ratios (Mole %) of SCFA's: Heptanic acid,"human faeces; 4 hours of incubation, Adapted",0.6 Mole %
same,Molar Ratios (Mole %) of SCFA's: Lactic acid,"human faeces; 4 hours of incubation, Adapted",9.0 Mole %
same,Molar Ratios (Mole %) of SCFA's: Propionic acid,"human faeces; 4 hours of incubation, Adapted",4.1 Mole %
same,Molar Ratios (Mole %) of SCFA's: Valeric acid,"human faeces; 4 hours of incubation, Adapted",1.0 Mole %
same,Total SCFA (production mmol/l),"human faeces; 4 hours of incubation, Adapted",24.3 mmol/L
same,Molar Ratios (Mole %) of SCFA's: Acetic acid,human faeces; [8],62.8 Mole %
same,Molar Ratios (Mole %) of SCFA's: Butyric acid,human faeces; [8],24.5 Mole %
same,Molar Ratios (Mole %) of SCFA's: Capronic acid,human faeces; [8],6.7 Mole %
same,Molar Ratios (Mole %) of SCFA's: Formic acid,human faeces; [8],0.5 Mole %
same,Molar Ratios (Mole %) of SCFA's: Heptanic acid,human faeces; [8],1.1 Mole %
same,Molar Ratios (Mole %) of SCFA's: Lactic acid,human faeces; [8],3.9 Mole %
same,Molar Ratios (Mole %) of SCFA's: Propionic acid,human faeces; [8],0.0 Mole %
same,Molar Ratios (Mole %) of SCFA's: Valeric acid,human faeces; [8],3.0 Mole %
same,Total SCFA (production mmol/l),human faeces; [8],8.8 mmol/L
same,Molar Ratios (Mole %) of SCFA's: Acetic acid,human faeces; [9],35.3 Mole %
same,Molar Ratios (Mole %) of SCFA's: Butyric acid,human faeces; [9],47.0 Mole %
same,Molar Ratios (Mole %) of SCFA's: Capronic acid,human faeces; [9],13.5 Mole %
same,Molar Ratios (Mole %) of SCFA's: Formic acid,human faeces; [9],0.1 Mole %
same,Molar Ratios (Mole %) of SCFA's: Heptanic acid,human faeces; [9],1.2 Mole %
same,Molar Ratios (Mole %) of SCFA's: Lactic acid,human faeces; [9],3.0 Mole %
same,Molar Ratios (Mole %) of SCFA's: Propionic acid,human faeces; [9],0.5 Mole %
same,Molar Ratios (Mole %) of SCFA's: Valeric acid,human faeces; [9],1.6 Mole %
same,Total SCFA (production mmol/l),human faeces; [9],44.0 mmol/L
same,Molar Ratios (Mole %) of SCFA's: Acetic acid,human faeces; [10],37.7 Mole %
same,Molar Ratios (Mole %) of SCFA's: Butyric acid,human faeces; [10],38.7 Mole %
same,Molar Ratios (Mole %) of SCFA's: Capronic acid,human faeces; [10],15.2 Mole %
same,Molar Ratios (Mole %) of SCFA's: Formic acid,human faeces; [10],0.0 Mole %
same,Molar Ratios (Mole %) of SCFA's: Heptanic acid,human faeces; [10],1.6 Mole %
same,Molar Ratios (Mole %) of SCFA's: Lactic acid,human faeces; [10],8.6 Mole %
same,Molar Ratios (Mole %) of SCFA's: Propionic acid,human faeces; [10],0.0 Mole %
same,Molar Ratios (Mole %) of SCFA's: Valeric acid,human faeces; [10],1.2 Mole %
same,Total SCFA (production mmol/l),human faeces; [10],49.0 mmol/L
same,time of adaptation in the in vitro incubation system,"human faeces; human faeces slurry, 1% D-tagatose",≤ 48 h
same,entero-bacteria in faeces,intestinal bacteria,decreased
same,number of lactic acid bacteria in faeces,intestinal bacteria,increased in number
same,number of lactobacilli in faeces,intestinal bacteria,increased in number
same,ingested D-tagatose absorbed in the small intestine,[4],15–20%
O=C[C@H](O)[C@@H](O)[C@@H](O)[C@H](O)C(=O)O [galacturonic acid],proportion of butyrate on fermentation,human faecal incubations,high proportion of butyrate
O=C(O)[C@H]1OC(O)[C@H](O)[C@@H](O)[C@@H]1O (some centres unmarked) [glucoronic acid],proportion of butyrate on fermentation,human faecal incubations,high proportion of butyrate
OC[C@@H](O)[C@@H](O[C@H]1O[C@H](CO)[C@@H](O)[C@H](O)[C@H]1O)[C@H](O)[C@@H](O)CO [maltitol],butyrate on in vitro incubation,human faecal incubations; Rapaille and Bornet 1997,10%
OC[C@@H](O)[C@@H](O)[C@H](O)[C@@H](O)CO [sorbitol],proportion of butyrate on fermentation,human faecal incubations,high proportion of butyrate
